{"source": "PubChem BioAssay AID977621", "about": "(Broad Institute, 2014)", "note": "Inconclusive results are not listed. Activity calls are given as the source filed them.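 How the source made its calls: active means Wild-type ribosome reporter drop at least double the humanized mutant ribosome reporter drop, growth loss under a set limit; inconclusive means no clear call, values can overlap the other calls; inactive means the rest.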", "data": [{"tested_on": "E. coli wild-type GFP strain growth, fluorescence, 24 h", "assay": "growth inhibition of wild-type GFP E. coli, dose response, H69 mutant RFP, cherry-pick (AID 977621);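 further: wild-type GFP and H69 mutant RFP strains grown together 50/50 in each well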", "conditions": "not given", "values": [{"smiles": "COc1ccccc1Cn1c(=S)[nH]c2ccc(F)cc2c1=O", "AC50": "> 100 µM (inactive)"}, {"smiles": "Cc1cccc(OCCC(=O)N(C)CC(=O)Nc2cccc3ccccc23)c1", "AC50": "> 100 µM (inactive)"}, {"smiles": "CC(=O)c1cccc(NC(=O)COC(=O)C2CCCN2C(=O)c2cccs2)c1", "note": "(stereo not drawn)", "AC50": "> 100 µM (inactive)"}, {"smiles": "Cc1cc(C(=O)NCCC2=CCCCC2)ccc1[N+](=O)[O-]", "AC50": "> 100 µM (inactive)"}, {"smiles": "CCN(CC)S(=O)(=O)c1cc(NS(=O)(=O)c2cccc(Cl)c2Cl)ccc1C", "AC50": "> 100 µM (inactive)"}, {"smiles": "Cc1cc(CNC(=O)COc2ccc(C)c(C)c2)c2ccccc2n1", "AC50": "> 100 µM (inactive)"}, {"smiles": "O=C(c1cc2cc(F)ccc2[nH]1)N1CCN(Cc2ccc3c(c2)OCO3)CC1", "AC50": "> 100 µM (inactive)"}, {"smiles": "c1ccc(-n2c(SCc3nc(-c4cccs4)no3)nnc2-c2ccco2)cc1", "AC50": "> 100 µM (inactive)"}, {"smiles": "COC(=O)c1ccccc1OCCOCCOc1cccc2ccc(C)nc12", "AC50": "> 100 µM (inactive)"}, {"smiles": "COc1ccc(NC(=O)Nc2cccc3c2O[C@H](CN(C)S(=O)(=O)c2ccc(Cl)cc2)[C@H](C)CN([C@@H](C)CO)C3=O)cc1", "AC50": "> 100 µM (inactive)"}, {"smiles": "CCN(c1ccc(OC)cc1)S(=O)(=O)c1cc(-c2cc(C)no2)ccc1OC", "AC50": "> 100 µM (inactive)"}, {"smiles": "CC(C)Nc1nnc(SCC(=O)Nc2sccc2C#N)s1", "AC50": "> 100 µM (inactive)"}, {"smiles": "N#Cc1nc(Cc2ccccc2)oc1N1CCCC1", "AC50": "> 100 µM (inactive)"}, {"smiles": "Oc1ccc2c3c1OC1c4oc5ccccc5c4C[C@@]4(O)[C@@H](C2)N(CC2CC2)CC[C@]314", "note": "(stereo partly drawn)", "AC50": "> 100 µM (inactive)"}, {"smiles": "Cn1cnc(CCNC(=O)C[C@H]2CC[C@@H]3[C@H](COC[C@H](O)CN3C(=O)Nc3ccc(Cl)cc3)O2)c1", "AC50": "> 100 µM (inactive)"}, {"smiles": "COc1cccc(OCCNS(=O)(=O)c2ccccc2[N+](=O)[O-])c1", "AC50": "> 100 µM (inactive)"}, {"smiles": "O=C(NCCc1ccccn1)c1cccc(S(=O)(=O)N2CCc3ccccc32)c1", "AC50": "> 100 µM (inactive)"}, {"smiles": "CC(C)CC#Cc1ccc2c(c1)O[C@@H](CN(C)Cc1ccccn1)[C@H](C)CN([C@H](C)CO)S2(=O)=O", "AC50": "> 100 µM (inactive)"}, {"smiles": "O=C(Nc1cscc1S(=O)(=O)c1ccccc1)c1ccccc1Cl", "AC50": "> 100 µM (inactive)"}, {"smiles": "CN1CCN(C(=O)c2cc3sc4ccccc4c3s2)CC1", "AC50": "> 100 µM (inactive)"}, {"smiles": "COc1ccc(Cl)cc1NC(=O)C1Cc2ccccc2CN1S(C)(=O)=O", "note": "(stereo not drawn)", "AC50": "> 100 µM (inactive)"}, {"smiles": "Cc1ccc(CNC(=O)c2ccc(Br)o2)cc1", "AC50": "> 100 µM (inactive)"}, {"smiles": "O=C(c1ccc(Cl)cc1)N1CCN(c2cccc3[nH]ccc23)CC1", "AC50": "> 100 µM (inactive)"}, {"smiles": "CCOC(=O)c1cnc2c(cnn2C)c1NCc1ccc(OC)cc1", "AC50": "> 100 µM (inactive)"}, {"smiles": "c1ccc(CNc2ncnc3sccc23)cc1", "AC50": "> 100 µM (inactive)"}]}, {"tested_on": "E. coli wild-type GFP strain growth, fluorescence, 24 h", "assay": "growth inhibition of wild-type GFP E. coli, dose response, H69 mutant RFP, cherry-pick (AID 977621)", "conditions": "E. coli mixed culture, 24 h; measured here: total growth OD600, test 2", "units": {"AC50": "µM"}, "values": [{"smiles": "CSc1nc2ccc(NC(=O)c3c(-c4ccccc4)noc3C)cc2s1", "AC50": 46.5}, {"smiles": "COc1ccc(-c2csc(C)n2)cc1Br", "AC50": "> 100"}, {"smiles": "CCN(c1ccccc1)S(=O)(=O)c1ccc(Cl)c(C(=O)NCc2ccco2)c1", "AC50": 33.8}, {"smiles": "CN1OC[C@@H]2CN(C(=O)c3ccco3)[C@H](c3ccc(-c4ccc(C#N)cc4)cc3)C[C@@H]21", "AC50": "> 100"}, {"smiles": "CCN(CC)S(=O)(=O)c1cc(NS(=O)(=O)c2cccc(Cl)c2Cl)ccc1C", "AC50": 33.4}, {"smiles": "O=C(c1cc2cc(F)ccc2[nH]1)N1CCN(Cc2ccc3c(c2)OCO3)CC1", "AC50": 24.5}, {"smiles": "c1ccc(-n2c(SCc3nc(-c4cccs4)no3)nnc2-c2ccco2)cc1", "AC50": 42.5}, {"smiles": "C[C@H](CO)N1C[C@H](C)[C@@H](CN(C)Cc2ccncc2)OCc2ccccc2-c2c(n(C)c3ccccc23)C1=O", "AC50": 40.2}, {"smiles": "COc1ccc(NC(=O)Nc2cccc3c2O[C@H](CN(C)S(=O)(=O)c2ccc(Cl)cc2)[C@H](C)CN([C@@H](C)CO)C3=O)cc1", "AC50": 6.44}, {"smiles": "Cc1ccc(N2C(=S)NC3c4cc(Cl)ccc4OC2(C)C3C(=O)N(C)C)cc1", "note": "(stereo not drawn)", "AC50": "> 100"}, {"smiles": "CCN(c1ccc(OC)cc1)S(=O)(=O)c1cc(-c2cc(C)no2)ccc1OC", "AC50": 36.8}, {"smiles": "COc1ccc(C2=NN(C(=O)c3cccnc3)C(c3ccccc3)C2)cc1", "note": "(stereo not drawn)", "AC50": 1.05}, {"smiles": "COc1cccc(NC(=O)C(c2ccccc2)N2CCN(c3ccccn3)CC2)c1", "note": "(stereo not drawn)", "AC50": "> 100"}, {"smiles": "Cc1ccc(S(=O)(=O)Nc2ccc3c(c2)C(=O)N([C@H](C)CO)C[C@@H](C)[C@H](CN(C)C(=O)c2ccccc2)OCCCC[C@@H](C)O3)cc1", "AC50": "> 100"}, {"smiles": "O=C(Cc1cccc2ccccc12)Nc1ccccc1C(=O)O", "AC50": 50.2}, {"smiles": "COc1ccc(C(=O)NCCC2=CCCCC2)cc1[N+](=O)[O-]", "AC50": "> 100"}, {"smiles": "CCOC(=O)c1c(C)nsc1NCc1ccccc1", "AC50": "> 100"}, {"smiles": "CCOC(=O)c1cnc2c(cnn2C)c1NCc1ccc(OC)cc1", "AC50": "> 100"}]}]}
